Assay results reported in patent US20240166630A1, “INDOLE DERIVATIVES AS SEROTONERGIC AGENTS USEFUL FOR THE TREATMENT OF DISORDERS RELATED THERETO” (Mindset Pharma Inc., priority 2021, published 2024).

Tested on: male C57BL6 mice
Assay: Mouse head-twitch response (HTR)
Type: in vivo
Settings: mice pretreated with M100907 prior to compound
Protocol: Male, C57BL/6J mice (body weight range 20-30 g) were dosed with the appropriate dose of test article, and following a 1-minute pre-treatment time, placed in individual observation chambers. Animals were visually assessed for the incidence head twitches continuously over a 1 hr period. Head twitches were defined as a rapid jerk of the head which was not elicited by an external tactile stimulus (Come and Pickering, Psychopharmacologia, 1967, 11(1): 65-78). Each head twitch was individually counted by a trained observer, and the data expressed as the mean±SEM of 6-10 mice per group. Mice were used in a single experiment only.
Dose response (0.3-3 mg/kg SC) 5-HT2A signs of WDS/BMC measured over 1h. Also locomotor activity and other 5-HT receptor signs measured. For example, the effect on various doses of exemplary compound of Formula I-B, I-B-1, on head-twitch response (HTR) in male C57BL6 mice was studied. The mice were treated with exemplary compound I-B-1 (0.03-10 mg/kg) by SC route in a vehicle of 10% DMSO in Saline (2 drops HCl (0.1M)+1 drop Tween 80 were added), and the total number of head twitches were recorded over a one hour period. Data is expressed as mean±SEM (see, FIG. 1).

In the case of `COc1cccc([C@H](O)C2CCN(CCc3ccc(F)cc3)CC2)c1OC` [Compound M100907], the “effect of pretreatment with 5-HT2AR antagonist on HTR induced by compounds of Formula I-B” value is reported as “completely blocked”.
